{"source": "paper PMC5025758", "about": "(Nature Communications, 2016)", "key": {"COX-2": {"molecular_target": "T1, COX-2 (Homo sapiens, UniProt P35354)", "T1 construct": "gene PTGS2", "test": "biochemical", "parameters": "off-target selectivity panel, enzyme and kinase inhibition, pXC50", "conditions": "read-out: pXC50 (enzyme inhibition) (converted)", "excerpt": "(§1) From the outset, GSK3011724A, an indazole sulfonamide (Fig. 1a), represented an attractive compound for early stage drug discovery based on its anti-mycobacterial potency, small size and moderate lipophilicity (Table 1). Further profiling in vitro using standard assays, such as the hERG ion channel and cytochrome P450 isoforms supported this view (Table 1). […] A description of this optimization effort along with a thorough discussion of the drug development potential and liabilities of this series will be the subject of a future publication."}, "PI3Kγ": {"molecular_target": "T2, PI3Kγ (Homo sapiens, UniProt P48736)", "T2 construct": "gene PIK3CG", "test": "biochemical", "parameters": "off-target selectivity panel, enzyme and kinase inhibition, pXC50", "conditions": "read-out: pXC50 (enzyme inhibition) (converted)", "excerpt": "as §1"}, "PDE3A": {"molecular_target": "PDE3A (Homo sapiens, UniProt Q14432)", "test": "biochemical", "parameters": "off-target selectivity panel, enzyme and kinase inhibition, pXC50", "conditions": "read-out: pXC50 (enzyme inhibition) (converted)", "excerpt": "as §1"}, "LCK": {"molecular_target": "LCK (Homo sapiens, UniProt P06239)", "test": "biochemical", "parameters": "off-target selectivity panel, enzyme and kinase inhibition, pXC50", "conditions": "read-out: pXC50 (enzyme inhibition) (converted)", "excerpt": "as §1"}, "Acetylcholinesterase": {"molecular_target": "T3, Acetylcholinesterase (Homo sapiens, UniProt P22303)", "T3 construct": "gene ACHE", "test": "biochemical", "parameters": "off-target selectivity panel, enzyme and kinase inhibition, pXC50", "conditions": "read-out: pXC50 (enzyme inhibition) (converted)", "excerpt": "as §1"}, "Pks11": {"molecular_target": "Pks11", "format": "biochemical, Mycobacterium bovis BCG"}, "Adenosine A2a": {"molecular_target": "T4, Adenosine A2a (Homo sapiens, UniProt P29274)", "T4 construct": "gene ADORA2A", "T4 sequence (P29274 whole entry)": "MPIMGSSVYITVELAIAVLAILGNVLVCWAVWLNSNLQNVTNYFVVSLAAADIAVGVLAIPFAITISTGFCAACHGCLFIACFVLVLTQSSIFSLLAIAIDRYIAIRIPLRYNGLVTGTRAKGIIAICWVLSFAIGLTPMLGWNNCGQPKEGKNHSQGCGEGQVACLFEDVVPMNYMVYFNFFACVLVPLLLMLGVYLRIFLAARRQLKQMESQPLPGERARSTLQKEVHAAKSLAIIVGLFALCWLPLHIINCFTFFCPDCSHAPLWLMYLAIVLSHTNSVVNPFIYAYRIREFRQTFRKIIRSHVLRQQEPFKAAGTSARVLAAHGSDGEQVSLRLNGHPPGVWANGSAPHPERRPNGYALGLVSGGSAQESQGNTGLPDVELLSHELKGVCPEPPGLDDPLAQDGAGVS", "test": "cell-based", "parameters": "off-target selectivity panel, receptor agonist or channel opener mode, pXC50", "conditions": "agonist mode; read-out: pXC50 (agonist) (converted)", "excerpt": "as §1"}, "Opioid μ": {"molecular_target": "T5, Opioid μ (Homo sapiens, UniProt P35372)", "T5 construct": "gene OPRM1", "test": "cell-based", "parameters": "off-target selectivity panel, receptor agonist or channel opener mode, pXC50", "conditions": "agonist mode; read-out: pXC50 (agonist) (converted)", "excerpt": "as §1"}, "Adrenergic β2": {"molecular_target": "T6, Adrenergic β2 (Homo sapiens, UniProt P07550)", "T6 construct": "gene ADRB2", "T6 sequence (P07550 whole entry)": "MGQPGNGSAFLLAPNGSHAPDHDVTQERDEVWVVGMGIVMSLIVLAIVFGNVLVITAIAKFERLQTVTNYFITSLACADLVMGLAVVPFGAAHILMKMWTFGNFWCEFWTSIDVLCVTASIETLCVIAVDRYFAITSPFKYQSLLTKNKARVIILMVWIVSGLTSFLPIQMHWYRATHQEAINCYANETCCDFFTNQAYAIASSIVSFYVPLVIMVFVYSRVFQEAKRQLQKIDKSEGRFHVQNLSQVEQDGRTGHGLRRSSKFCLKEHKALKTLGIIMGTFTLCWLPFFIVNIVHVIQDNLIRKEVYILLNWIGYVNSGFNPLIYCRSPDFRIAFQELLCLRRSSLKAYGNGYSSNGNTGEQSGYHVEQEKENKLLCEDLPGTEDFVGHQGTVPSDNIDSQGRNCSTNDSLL", "test": "cell-based", "parameters": "off-target selectivity panel, receptor agonist or channel opener mode, pXC50", "conditions": "agonist mode; read-out: pXC50 (agonist) (converted)", "excerpt": "as §1"}, "Muscarine M2 [1]": {"molecular_target": "T7, Muscarine M2 (Homo sapiens, UniProt P08172)", "T7 construct": "gene CHRM2", "T7 sequence (P08172 whole entry)": "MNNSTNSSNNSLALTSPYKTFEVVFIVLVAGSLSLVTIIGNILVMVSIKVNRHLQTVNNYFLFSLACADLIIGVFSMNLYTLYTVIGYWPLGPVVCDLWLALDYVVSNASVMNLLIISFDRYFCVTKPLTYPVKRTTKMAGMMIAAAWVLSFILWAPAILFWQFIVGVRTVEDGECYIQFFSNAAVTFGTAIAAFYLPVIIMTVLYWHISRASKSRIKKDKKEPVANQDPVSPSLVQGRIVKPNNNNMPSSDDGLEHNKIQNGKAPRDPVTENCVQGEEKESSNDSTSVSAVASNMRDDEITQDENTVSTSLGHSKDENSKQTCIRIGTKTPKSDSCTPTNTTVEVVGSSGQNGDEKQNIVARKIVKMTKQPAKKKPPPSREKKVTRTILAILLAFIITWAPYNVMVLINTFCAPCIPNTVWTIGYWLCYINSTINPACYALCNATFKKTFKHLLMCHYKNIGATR", "test": "cell-based", "parameters": "off-target selectivity panel, receptor agonist or channel opener mode, pXC50", "conditions": "agonist mode; read-out: pXC50 (agonist) (converted)", "excerpt": "as §1"}, "AhR": {"molecular_target": "AhR (Homo sapiens, UniProt P35869)", "test": "cell-based", "parameters": "off-target selectivity panel, receptor agonist or channel opener mode, pXC50", "conditions": "agonist mode; read-out: pXC50 (agonist) (converted)", "excerpt": "as §1"}, "Opioid κ": {"molecular_target": "T8, Opioid κ (Homo sapiens, UniProt P41145)", "T8 construct": "gene OPRK1", "test": "cell-based", "parameters": "off-target selectivity panel, receptor agonist or channel opener mode, pXC50", "conditions": "agonist mode; read-out: pXC50 (agonist) (converted)", "excerpt": "as §1"}, "Adrenergic α2C": {"molecular_target": "T9, Adrenergic α2C (Homo sapiens, UniProt P18825)", "T9 construct": "gene ADRA2C", "test": "cell-based", "parameters": "off-target selectivity panel, receptor agonist or channel opener mode, pXC50", "conditions": "agonist mode; read-out: pXC50 (agonist) (converted)", "excerpt": "as §1"}, "Serotonin 5HT2A": {"molecular_target": "T10, Serotonin 5HT2A (Homo sapiens, UniProt P28223)", "T10 construct": "gene HTR2A", "T10 sequence (P28223 whole entry, looked up)": "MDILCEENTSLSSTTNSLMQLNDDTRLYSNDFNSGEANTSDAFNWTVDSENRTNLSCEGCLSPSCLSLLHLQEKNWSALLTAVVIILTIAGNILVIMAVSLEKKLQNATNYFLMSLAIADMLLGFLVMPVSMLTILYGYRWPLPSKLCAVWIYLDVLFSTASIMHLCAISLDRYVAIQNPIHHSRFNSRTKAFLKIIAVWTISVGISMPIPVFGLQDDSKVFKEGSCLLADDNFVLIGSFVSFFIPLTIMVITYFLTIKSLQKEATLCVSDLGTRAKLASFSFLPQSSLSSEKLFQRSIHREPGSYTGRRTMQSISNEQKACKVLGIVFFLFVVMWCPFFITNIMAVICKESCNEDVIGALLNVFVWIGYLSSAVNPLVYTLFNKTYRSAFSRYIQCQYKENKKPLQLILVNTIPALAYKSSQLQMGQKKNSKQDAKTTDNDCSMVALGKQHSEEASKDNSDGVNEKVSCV", "test": "cell-based", "parameters": "off-target selectivity panel, receptor agonist or channel opener mode, pXC50", "conditions": "agonist mode; read-out: pXC50 (agonist) (converted)", "excerpt": "as §1"}, "PXR": {"molecular_target": "T11, PXR (Homo sapiens, UniProt O75469)", "T11 construct": "gene NR1I2", "T11 sequence (O75469 whole entry)": "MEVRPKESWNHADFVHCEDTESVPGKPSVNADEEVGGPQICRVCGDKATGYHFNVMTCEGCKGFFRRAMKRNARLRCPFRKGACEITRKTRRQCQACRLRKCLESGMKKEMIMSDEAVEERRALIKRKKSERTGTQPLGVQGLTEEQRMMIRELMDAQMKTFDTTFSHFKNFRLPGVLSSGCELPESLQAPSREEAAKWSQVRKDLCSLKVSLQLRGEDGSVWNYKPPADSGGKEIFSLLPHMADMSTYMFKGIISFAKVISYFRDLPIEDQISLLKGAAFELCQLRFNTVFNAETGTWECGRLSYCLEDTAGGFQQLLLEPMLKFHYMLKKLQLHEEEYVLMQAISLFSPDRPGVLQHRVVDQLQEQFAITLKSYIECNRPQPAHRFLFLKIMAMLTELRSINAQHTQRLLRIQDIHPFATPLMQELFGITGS", "test": "cell-based", "parameters": "off-target selectivity panel, receptor agonist or channel opener mode, pXC50", "conditions": "agonist mode; read-out: pXC50 (agonist) (converted)", "excerpt": "as §1"}, "Serotonin 5HT1B": {"molecular_target": "T12, Serotonin 5HT1B (Homo sapiens, UniProt P28222)", "T12 construct": "gene HTR1B", "test": "cell-based", "parameters": "off-target selectivity panel, receptor agonist or channel opener mode, pXC50", "conditions": "agonist mode; read-out: pXC50 (agonist) (converted)", "excerpt": "as §1"}, "Dopamine D2": {"molecular_target": "T13, Dopamine D2 (Homo sapiens, UniProt P14416)", "T13 construct": "gene DRD2", "test": "cell-based", "parameters": "off-target selectivity panel, receptor agonist or channel opener mode, pXC50", "conditions": "agonist mode; read-out: pXC50 (agonist) (converted)", "excerpt": "as §1"}, "Serotonin 5HT2C": {"molecular_target": "T14, Serotonin 5HT2C (Homo sapiens, UniProt P28335)", "T14 construct": "gene HTR2C", "test": "cell-based", "parameters": "off-target selectivity panel, receptor agonist or channel opener mode, pXC50", "conditions": "agonist mode; read-out: pXC50 (agonist) (converted)", "excerpt": "as §1"}, "Cannabinoid CB2": {"molecular_target": "T15, Cannabinoid CB2 (Homo sapiens, UniProt P34972)", "T15 construct": "gene CNR2", "test": "cell-based", "parameters": "off-target selectivity panel, receptor agonist or channel opener mode, pXC50", "conditions": "agonist mode; read-out: pXC50 (agonist) (converted)", "excerpt": "as §1"}, "α1 nicotinic AChR": {"molecular_target": "T16, α1 nicotinic AChR (Homo sapiens, UniProt P02708)", "T16 construct": "gene CHRNA1", "test": "cell-based", "parameters": "off-target selectivity panel, receptor agonist or channel opener mode, pXC50", "conditions": "opener mode; read-out: pXC50 (opener) (converted)", "excerpt": "as §1"}, "Muscarine M1": {"molecular_target": "T17, Muscarine M1 (Homo sapiens, UniProt P11229)", "T17 construct": "gene CHRM1", "test": "cell-based", "parameters": "off-target selectivity panel, receptor agonist or channel opener mode, pXC50", "conditions": "agonist mode; read-out: pXC50 (agonist) (converted)", "excerpt": "as §1"}, "Serotonin 5HT3 [2]": {"molecular_target": "T18, Serotonin 5HT3 (Homo sapiens, UniProt P46098)", "T18 construct": "gene HTR3A", "T18 sequence (P46098 whole entry)": "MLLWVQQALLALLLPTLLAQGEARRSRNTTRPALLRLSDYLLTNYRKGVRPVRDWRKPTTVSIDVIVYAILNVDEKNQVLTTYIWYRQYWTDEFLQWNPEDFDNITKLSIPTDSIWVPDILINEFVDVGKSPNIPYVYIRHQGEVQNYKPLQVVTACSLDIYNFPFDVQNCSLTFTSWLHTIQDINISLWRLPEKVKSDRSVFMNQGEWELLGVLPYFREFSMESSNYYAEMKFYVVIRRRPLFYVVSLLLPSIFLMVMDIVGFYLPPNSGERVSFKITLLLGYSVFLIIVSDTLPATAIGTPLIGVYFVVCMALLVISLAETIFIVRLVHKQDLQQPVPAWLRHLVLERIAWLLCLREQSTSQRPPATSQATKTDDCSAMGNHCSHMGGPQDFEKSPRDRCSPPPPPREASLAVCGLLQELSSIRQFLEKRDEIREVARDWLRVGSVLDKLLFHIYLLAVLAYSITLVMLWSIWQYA", "test": "cell-based", "parameters": "off-target selectivity panel, receptor agonist or channel opener mode, pXC50", "conditions": "opener mode; read-out: pXC50 (opener) (converted)", "excerpt": "as §1"}, "[3]": {"molecular_target": "T19, L-type Ca channel (CaV1.2) (Homo sapiens, UniProt Q13936)", "T19 construct": "gene CACNA1C", "T19 sequence (Q13936 whole entry)": "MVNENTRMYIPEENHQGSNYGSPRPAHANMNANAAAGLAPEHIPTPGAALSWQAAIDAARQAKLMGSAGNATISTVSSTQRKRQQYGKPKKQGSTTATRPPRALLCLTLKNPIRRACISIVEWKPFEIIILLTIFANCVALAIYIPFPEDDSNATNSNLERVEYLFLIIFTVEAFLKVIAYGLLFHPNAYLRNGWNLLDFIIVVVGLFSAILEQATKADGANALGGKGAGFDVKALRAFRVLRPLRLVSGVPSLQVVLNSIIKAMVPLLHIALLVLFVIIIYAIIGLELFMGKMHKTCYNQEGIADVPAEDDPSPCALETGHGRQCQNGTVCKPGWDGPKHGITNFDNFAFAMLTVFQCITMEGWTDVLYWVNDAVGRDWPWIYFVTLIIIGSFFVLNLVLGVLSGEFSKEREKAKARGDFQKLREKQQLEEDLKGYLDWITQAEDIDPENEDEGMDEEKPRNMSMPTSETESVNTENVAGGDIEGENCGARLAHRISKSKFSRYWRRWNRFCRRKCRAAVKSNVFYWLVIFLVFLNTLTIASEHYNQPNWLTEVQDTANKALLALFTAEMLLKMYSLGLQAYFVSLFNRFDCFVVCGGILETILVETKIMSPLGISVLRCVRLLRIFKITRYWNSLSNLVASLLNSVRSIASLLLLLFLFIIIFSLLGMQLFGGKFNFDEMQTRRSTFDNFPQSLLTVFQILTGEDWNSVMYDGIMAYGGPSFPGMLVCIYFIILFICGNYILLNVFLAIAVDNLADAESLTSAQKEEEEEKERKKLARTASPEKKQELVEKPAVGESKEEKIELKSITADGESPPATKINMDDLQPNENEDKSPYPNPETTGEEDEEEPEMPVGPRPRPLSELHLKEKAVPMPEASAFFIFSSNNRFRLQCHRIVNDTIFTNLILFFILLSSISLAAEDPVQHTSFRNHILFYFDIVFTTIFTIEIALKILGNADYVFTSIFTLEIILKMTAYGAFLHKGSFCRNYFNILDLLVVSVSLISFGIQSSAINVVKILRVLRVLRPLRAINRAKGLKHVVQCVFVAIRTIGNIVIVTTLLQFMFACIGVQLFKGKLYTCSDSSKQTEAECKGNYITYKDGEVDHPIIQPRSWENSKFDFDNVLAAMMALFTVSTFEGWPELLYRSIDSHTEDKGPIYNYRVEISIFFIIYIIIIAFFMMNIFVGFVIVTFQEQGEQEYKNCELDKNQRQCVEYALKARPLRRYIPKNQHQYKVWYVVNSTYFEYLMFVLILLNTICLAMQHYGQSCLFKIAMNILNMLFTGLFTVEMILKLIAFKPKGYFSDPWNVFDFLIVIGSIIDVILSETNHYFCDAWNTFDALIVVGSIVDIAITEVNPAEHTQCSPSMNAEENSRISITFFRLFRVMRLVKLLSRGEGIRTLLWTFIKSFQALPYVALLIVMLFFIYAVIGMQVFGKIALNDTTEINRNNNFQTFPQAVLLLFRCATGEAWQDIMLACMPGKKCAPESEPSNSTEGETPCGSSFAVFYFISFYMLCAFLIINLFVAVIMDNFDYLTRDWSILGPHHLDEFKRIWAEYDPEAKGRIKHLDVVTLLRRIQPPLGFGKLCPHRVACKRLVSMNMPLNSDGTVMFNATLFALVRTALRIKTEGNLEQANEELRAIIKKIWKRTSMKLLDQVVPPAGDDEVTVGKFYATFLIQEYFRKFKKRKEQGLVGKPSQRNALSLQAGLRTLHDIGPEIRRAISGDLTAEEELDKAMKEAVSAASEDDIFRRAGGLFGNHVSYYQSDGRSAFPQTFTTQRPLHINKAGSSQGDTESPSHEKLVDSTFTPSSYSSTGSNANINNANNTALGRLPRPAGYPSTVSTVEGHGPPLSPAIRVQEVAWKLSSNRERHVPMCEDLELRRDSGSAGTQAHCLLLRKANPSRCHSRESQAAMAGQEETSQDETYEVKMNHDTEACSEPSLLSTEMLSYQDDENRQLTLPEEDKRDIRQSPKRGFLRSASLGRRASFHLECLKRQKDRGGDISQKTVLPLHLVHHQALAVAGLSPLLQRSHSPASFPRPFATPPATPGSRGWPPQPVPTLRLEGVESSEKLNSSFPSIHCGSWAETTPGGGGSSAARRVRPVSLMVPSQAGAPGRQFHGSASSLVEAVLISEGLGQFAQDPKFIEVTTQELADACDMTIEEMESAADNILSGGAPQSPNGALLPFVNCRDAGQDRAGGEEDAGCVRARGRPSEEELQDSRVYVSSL", "test": "cell-based", "parameters": "off-target selectivity panel, receptor antagonist, channel blocker or transporter inhibition mode, pXC50", "conditions": "read-out: pXC50 (blocker / transporter inhibition) (converted)", "excerpt": "as §1"}, "Muscarine M2 [4]": {"molecular_target": "T7, Muscarine M2", "test": "cell-based", "parameters": "off-target selectivity panel, receptor antagonist, channel blocker or transporter inhibition mode, pXC50", "conditions": "antagonist mode; read-out: pXC50 (antagonist) (converted)", "excerpt": "as §1"}, "Serotonin 5HT3 [5]": {"molecular_target": "T18, Serotonin 5HT3", "test": "cell-based", "parameters": "off-target selectivity panel, receptor antagonist, channel blocker or transporter inhibition mode, pXC50", "conditions": "read-out: pXC50 (blocker / transporter inhibition) (converted)", "excerpt": "as §1"}}, "data": [{"molecule": "CCCCS(=O)(=O)Nc1ccc2cnn(C)c2c1", "note": "[GSK3011724A]", "values": [{"measurement": "IC50", "setting": "COX-2", "value": "> 100", "unit": "µM"}, {"measurement": "IC50", "setting": "PI3Kγ", "value": "> 31.6", "unit": "µM"}, {"measurement": "IC50", "setting": "PDE3A", "value": "> 100", "unit": "µM"}, {"measurement": "IC50", "setting": "LCK", "value": "> 31.6", "unit": "µM"}, {"measurement": "IC50", "setting": "Acetylcholinesterase", "value": "> 100", "unit": "µM"}, {"measurement": "Kd", "setting": "Pks11", "value": 1.4, "unit": "µM"}, {"measurement": "EC50", "setting": "Adenosine A2a", "value": "> 100", "unit": "µM"}, {"measurement": "EC50", "setting": "Opioid μ", "value": "> 100", "unit": "µM"}, {"measurement": "EC50", "setting": "Adrenergic β2", "value": "> 100", "unit": "µM"}, {"measurement": "EC50", "setting": "Muscarine M2 [1]", "value": "> 50.1", "unit": "µM"}, {"measurement": "EC50", "setting": "AhR", "value": "> 100", "unit": "µM"}, {"measurement": "EC50", "setting": "Opioid κ", "value": "> 100", "unit": "µM"}, {"measurement": "EC50", "setting": "Adrenergic α2C", "value": "> 100", "unit": "µM"}, {"measurement": "EC50", "setting": "Serotonin 5HT2A", "value": "> 25.1", "unit": "µM"}, {"measurement": "EC50", "setting": "PXR", "value": "> 50.1", "unit": "µM"}, {"measurement": "EC50", "setting": "Serotonin 5HT1B", "value": "> 100", "unit": "µM"}, {"measurement": "EC50", "setting": "Dopamine D2", "value": "> 100", "unit": "µM"}, {"measurement": "EC50", "setting": "Serotonin 5HT2C", "value": "> 25.1", "unit": "µM"}, {"measurement": "EC50", "setting": "Cannabinoid CB2", "value": "> 100", "unit": "µM"}, {"measurement": "EC50", "setting": "α1 nicotinic AChR", "value": "> 50.1", "unit": "µM"}, {"measurement": "EC50", "setting": "Muscarine M1", "value": "> 50.1", "unit": "µM"}, {"measurement": "EC50", "setting": "Serotonin 5HT3 [2]", "value": "> 50.1", "unit": "µM"}, {"measurement": "IC50", "setting": "[3]", "value": "> 100", "unit": "µM"}, {"measurement": "IC50", "setting": "Muscarine M2 [4]", "value": "> 50.1", "unit": "µM"}, {"measurement": "IC50", "setting": "Serotonin 5HT3 [5]", "value": "> 50.1", "unit": "µM"}]}]}
